Publication PMC9436924, “A gene cluster in Ginkgo biloba encodes unique multifunctional cytochrome P450s that initiate ginkgolide biosynthesis” (Nature Communications, 2022)

Key:
GbLPS = target: T1, GbLPS (Ginkgo biloba, UniProt Q947C4); test: expression in tobacco leaves, GC-MS of products; type: cell-based; conditions: substrate made in situ with CfDXS and CfGGPPS
T1 construct: gene LPS; transiently expressed in Nicotiana benthamiana leaves, plastidial; (in yeast a truncated, codon-optimised MBP fusion was used)
T1 sequence (Q947C4 60-873): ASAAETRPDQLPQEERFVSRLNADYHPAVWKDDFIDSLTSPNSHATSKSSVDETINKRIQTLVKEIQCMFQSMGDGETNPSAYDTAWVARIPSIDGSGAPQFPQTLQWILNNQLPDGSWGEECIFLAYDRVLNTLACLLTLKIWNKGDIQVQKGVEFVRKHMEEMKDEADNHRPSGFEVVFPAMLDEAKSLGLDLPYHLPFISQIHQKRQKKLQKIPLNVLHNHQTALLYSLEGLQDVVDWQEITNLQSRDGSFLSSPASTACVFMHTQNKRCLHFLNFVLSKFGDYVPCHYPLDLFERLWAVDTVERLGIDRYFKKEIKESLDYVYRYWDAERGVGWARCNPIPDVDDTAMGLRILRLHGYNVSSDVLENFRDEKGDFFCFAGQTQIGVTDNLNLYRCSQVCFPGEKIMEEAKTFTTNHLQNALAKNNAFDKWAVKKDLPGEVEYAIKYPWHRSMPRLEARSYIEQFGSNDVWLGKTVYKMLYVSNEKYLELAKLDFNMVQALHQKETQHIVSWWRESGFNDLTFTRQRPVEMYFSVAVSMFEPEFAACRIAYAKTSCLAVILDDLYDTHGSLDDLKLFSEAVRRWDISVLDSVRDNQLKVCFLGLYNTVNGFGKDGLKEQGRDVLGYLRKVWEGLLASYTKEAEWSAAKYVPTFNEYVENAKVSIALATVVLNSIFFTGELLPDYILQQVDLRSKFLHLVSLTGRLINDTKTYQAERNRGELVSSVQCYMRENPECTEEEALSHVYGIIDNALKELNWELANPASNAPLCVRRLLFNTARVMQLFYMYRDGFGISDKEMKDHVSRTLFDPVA

GbCYP720B31 = target: T2, GbCYP720B31 (Ginkgo biloba, UniProt Z9PDJ7KIF4); test: pathway co-expression in tobacco and yeast, LC-HRMS, NMR of product glucosides; type: cell-based; conditions: proposed substrate made in situ by upstream enzymes, free form not detected
T2 construct: G. biloba cDNA, gene on chromosome 4; expressed in Nicotiana benthamiana and Saccharomyces cerevisiae; GenBank numbers ON759313-ON759329 printed only as a collective set
T2 sequence (Z9PDJ7KIF4 1-483): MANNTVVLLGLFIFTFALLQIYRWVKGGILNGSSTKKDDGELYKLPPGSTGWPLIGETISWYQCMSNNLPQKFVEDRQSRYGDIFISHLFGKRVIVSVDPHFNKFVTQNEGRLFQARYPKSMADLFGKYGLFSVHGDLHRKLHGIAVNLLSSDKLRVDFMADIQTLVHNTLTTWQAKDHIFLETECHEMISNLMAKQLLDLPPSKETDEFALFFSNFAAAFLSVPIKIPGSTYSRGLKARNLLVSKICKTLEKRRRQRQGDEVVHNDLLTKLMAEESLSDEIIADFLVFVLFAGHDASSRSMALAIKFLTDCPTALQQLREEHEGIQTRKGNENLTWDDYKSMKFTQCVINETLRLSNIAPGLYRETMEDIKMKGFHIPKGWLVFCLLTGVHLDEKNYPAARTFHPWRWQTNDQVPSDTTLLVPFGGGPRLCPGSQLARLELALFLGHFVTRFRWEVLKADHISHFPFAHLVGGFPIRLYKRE

SMILES	expression in tobacco leaves, GC-MS of products (GbLPS)	pathway co-expression in tobacco and yeast, LC-HRMS, NMR of product glucosides (GbCYP720B31)
CC(C)=CCC/C(C)=C/CC/C(C)=C/CC/C(C)=C/COP(=O)(O)OP(=O)(O)O [geranylgeranyl pyrophosphate]	levopimaradiene synthase (GbLPS) converts GGPP to diterpene hydrocarbon levopimaradiene	–
CC(=CC(=O)O)C(CCc1cc(O)c(C(C)C)cc1O)C(C)(C)C (centres unmarked) [ginkgosinoic acid C]	–	we propose that GbCYP720B31 hydroxylates ginkgosinoic acid C at position C20
